Results on one molecule are retold here after US20180010188A1, “METHOD FOR DETECTING NONSENSE-MEDIATED RNA DECAY” (The Regents of the University of California, priority 2016, published 2018).

Experiment [1] relates to Perk transcripts. As to the kind of experiment: Perk transcript levels by RT-qPCR. As to conditions: thapsigargin in control siRNA-pretreated cells. It counts as cell-based, mouse. The protocol: Two independent siRNAs reduced the endogenous Perk transcripts to around 20% (FIG. 4A).
Neuro-2a (N2a) cells were maintained in N2a complete media consisting of L-glutamine-free Dulbecco's modified Eagle's medium (DMEM), 10% FBS and 1× GlutaMAX at 37° C. Thapsigargin (VWR, cat. no. 89161-410), ionomycin (Fisher Scientific, cat. no. AG-CN2-0416-M001) and ouabain octahydrate (Fisher Scientific, cat. no. 80055-364) were dissolved in DMSO and stored at −80° C. For the application of these chemicals, 750,000 cells were plated on 35 mm BioLite TC plates and incubated with 2 ml of N2a complete media overnight before treatment with the drugs at the indicated concentrations. The cells were collected at 5 hours post-treatment unless otherwise specified. The PERK inhibitor GSK2606414 (Thermo Fisher, cat. no. 501016108) was dissolved in DMSO and stored at −20° C. N2a cells were incubated with GSK2606414 for 1 hour before thapsigargin treatment. For L-glutamine deprivation, 750,000 N2a cells were plated overnight and switched to L-glutamine-free DMEM with 10% FBS. […]
Trizol (Life Technologies, cat. no. 15596-018) was directly added to the cells or mouse brain tissues to extract total RNA following the Trizol Reagent standard protocol. […] RNA concentrations were measured using a Nanodrop 2000c (Thermo Fisher). […] Relative expression (fold changes) was calculated using the ΔΔCt method. […]

Experiment [2] relates to polysome integrity. As to the kind of experiment: Polysome fractionation by sucrose density gradient centrifugation. In kind it is cell-based, mouse. As to conditions: 5 hours, DMSO 30. The protocol:
In addition to altering gene expression via the IRE1-Xbp1s signaling pathway to retain homeostasis, ER stress also reduces global protein synthesis (Harding et al., 1999. Nature 397: 271-274; Ron D. 2002. J Clin Invest 110: 1383-1388; Wek et al., 2006. Biochem Soc Trans 34: 7-11). The dose of thapsigargin inhibiting NMD was as low as 20 nM, whereas according to the literature, thapsigargin has been widely used at 1 μM to induce ER stress. To assess whether the NMD-inhibiting thapsigargin doses also repressed translation, we performed ribosome fractionation using sucrose density gradient centrifugation and examined polysome integrity as an indicator of translational activity. […] The heavier polysomes (>4 ribosomes) were affected the most and further collapsed with increasing doses of thapsigargin. Polysome disintegration was also accompanied by increasing optical density values of 80S. To quantify the dose effect of thapsigargin, we drew a line from the peak of the disome to the peak of the polysome consisting of roughly 8 ribosomes based on relative elution time. We measured the angle of this line relative to a horizontal line through the disome peak and used the angle as an indicator of polysome integrity. This angle was 30 for DMSO-treated cells and decreased to 0, −18, −20, −30 and −40 in response to increasing thapsigargin concentrations of 0.01, 0.02, 0.05, 0.1 and 0.2 μM, respectively.
For polysome fractionation, 1.5×10^7 N2a cells in 20 ml N2a complete media were plated on 150 mm petri dishes overnight and treated with varying concentrations of thapsigargin the next day. Cycloheximide (Fisher Scientific, cat. no. 50490338) was added at a concentration of 100 μg/ml, and the cells were incubated for 10 min at 37° C. before lysate collection. The cells were washed twice with 10 ml cold 1×PBS containing 100 μg/ml cycloheximide then collected in 4 ml of the same cold PBS solution. The cells were lysed with 0.5 ml lysis buffer (20 mM Tris pH 7.5, 100 mM KCl, 5 mM MgCl2, 2 mM DTT, 100 μg/ml cycloheximide, 1% Triton X-100, 50 u/ml RNaseout and 1×EDTA-free protease inhibitor cocktail). Roughly 400 μl ([…]) of lysate was loaded onto premade sucrose gradients (60% to 15%) and balanced (within 0.5 mg) before ultracentrifugation at 4° C. and 237,000 g (50,000 rpm for a SW55 Ti rotor) for 1.5 hours. Products were carefully removed from the ultracentrifuge and fractionated with the apparatus consisting of the gradient fractionator (Brandel SYN-202), the ISCO absorbance detector (ISCO # UA-6, Lincoln, Nebr.) and the fraction collector (R1 Fraction Collector) at 2.0 sensitivity and 150 cm/h chart speed to record absorbance data and collect fractionations.

Each structure is given as a SMILES string.

Regarding `C/C=C(/C)C(=O)O[C@H]1C(C)=C2[C@H]([C@@H]1OC(=O)CCCCCCC)[C@@](C)(OC(C)=O)C[C@H](OC(=O)CCC)[C@@]1(O)[C@H]2OC(=O)[C@@]1(C)O` [thapsigargin], the Perk transcript levels result in experiment [1] is recorded as “increased”. Moreover, the “angle of disome-to-8-ribosome peak line (polysome integrity)” value is 0 in experiment [2] (0.01 μM); −18 in experiment [2] (0.02 μM); −20 in experiment [2] (0.05 μM); −30 in experiment [2] (0.1 μM); −40 in experiment [2] (0.2 μM).
